These results are taken from patent US20150259371A1, “METHODS AND COMPOUNDS FOR INHIBITING GLYCOSYLTRANSFERASES” (SIMON FRASER UNIVERSITY, priority 2010, published 2015).

Test [1] has as its system O-GlcNAc levels in COS-7 cells. Description: Western blot of O-GlcNAc levels (CTD110.6) in treated COS-7 cells. The settings on record: for effect on O-GlcNAc levels at single dose / extent of decrease of O-GlcNAc levels relative to parent compound 9: 50 μM. The format is cell-based, African green monkey. Here is the method:
Cell culture: Cells were grown in an incubator at 37° C. and 5% CO2 atmosphere. Media and serum were purchased from Invitrogen. COS-7 cells were cultured in Dulbecco's modified Eagle's medium (DMEM) with 5% fetal bovine serum (FBS), and were typically 80-100% confluent prior to experimentation. HepG2, SK-N-SH, and EMEG32^−/− cells were cultured in Dulbecco's modified Eagle's medium (DMEM) with 5% fetal bovine serum (FBS), CHO cells in DMEMF-12 with 5% FBS and PC12 cells in DMEM with 5% FBS and 5% horse serum. Prior to experimentation, PC12 cells were plated at a density of 3-4×10^5 cells10 cm plate, which had been pre-treated with 5 μgcm^2 rat tail collagen (BD Biosciences). Cells were differentiated in DMEM containing 1% horse serum, in the presence of 2.5S mouse nerve growth factor (Chemicon) at a final concentration of 25 ng mL^−1, for 4-5 days prior to treatment. Other cell lines were 80-100% confluent prior to treatment. Following treatment with (Ac-)5SGlcNAc, using various conditions, cells were washed gently with PBS, lysed in SDS loading buffer and boiled for 10 minutes. Mouse hybridoma cells (obtained from the Developmental Studies Hybridoma Bank; antibody E7 for (:1-tubulin) were cultured in RPMI40 with 10% FBS. Prior to treatment with Ac-5SGlcNAc, hybridoma cells were cultured for 2 days in RPMI40 with 5% FBS, and during treatment in RPMI40 with no serum. Cells were collected, centrifuged (800 x g, 5 min) and the supernatant removed. Cells were washed with PBS, centrifuged, the pellet resuspended in SDS loading buffer and boiled. The supernatant after centrifugation, which contained the IgG antibody produced by the cells, was used for immunoprecipitation (see below for details).
Westernlectin blots: Samples were run on 10% SDS polyacrylamide gels and transferred onto nitrocellulose membranes (Biorad). Membranes were blocked for 1 h in PBS containing 0.1% Tween-20 (PBS-T) containing 1% (unless otherwise stated) bovine serum albumin (BSA), and probed with the appropriate primary antibody or lectin in 1% BSA in PBS-T overnight at 4° C. Blots were washed for 1 hr with PBS-T, and blocked for a further 30 min with 1% BSA in PBS-T at room temperature. They were then probed with the appropriate horseradish peroxidise (HRP)-conjugated secondary antibodyprobe in 1% BSA in PBS-T at room temperature for 1 h, followed by washing in PBS-T for 1 h. Blots were developed with SuperSignal West Pico Chemiluminescent Substrate (Pierce) and exposed to CL-XPosure film (Pierce). Densitometry was performed using ImageQuant 5.2 (Molecular Dynamics), and fits to the data were made using GRAFIT^41.
Antibodieslectins: O-GlcNAc levels were assessed primarily using CTD110.6 (Covance), but RL2 (Abcam) and HGAC85 (Abcam) were also tested. Actin was probed using JLA20 (Developmental Studies Hybridoma Bank). OGA levels were assessed using a polyclonal anti-OGA antibody which was a kind gift from Dr. Gerald Hart and OGT levels using H-300 (Santa Cruz Biotechnology). nup62 was probed using mAb 414 (Covance). Secondary antibodies employed (HRP-conjugated goat anti-mouse IgM, goat anti-mouse IgG, goat anti-chicken IgY and goat anti-rabbit IgG) were obtained from Santa Cruz Biotechnology. Biotinylated-ConA, PHA-L, SNA and MAA were purchased from EY Laboratories, and biotinylated-GNA from Vector Laboratories. HRP-conjugated streptavidin (Pierce) was used as a probe for the biotinylated lectins.
Analogues (9, 10, 17-41) were tested in COS-7 cells, dosed at a final concentration of 50 μM in DMSO for 24 h. Following treatment, cells were washed with PBS, harvested into SDS-PAGE loading buffer and analyzed by western blot using standard procedures; blots were probed with the anti-O-GlcNAc antibody (CTD 110.6).

A further test has as its target T1, OGA (Homo sapiens, UniProt O60502).
T1 construct: made in house
T1 sequence (O60502 1-916): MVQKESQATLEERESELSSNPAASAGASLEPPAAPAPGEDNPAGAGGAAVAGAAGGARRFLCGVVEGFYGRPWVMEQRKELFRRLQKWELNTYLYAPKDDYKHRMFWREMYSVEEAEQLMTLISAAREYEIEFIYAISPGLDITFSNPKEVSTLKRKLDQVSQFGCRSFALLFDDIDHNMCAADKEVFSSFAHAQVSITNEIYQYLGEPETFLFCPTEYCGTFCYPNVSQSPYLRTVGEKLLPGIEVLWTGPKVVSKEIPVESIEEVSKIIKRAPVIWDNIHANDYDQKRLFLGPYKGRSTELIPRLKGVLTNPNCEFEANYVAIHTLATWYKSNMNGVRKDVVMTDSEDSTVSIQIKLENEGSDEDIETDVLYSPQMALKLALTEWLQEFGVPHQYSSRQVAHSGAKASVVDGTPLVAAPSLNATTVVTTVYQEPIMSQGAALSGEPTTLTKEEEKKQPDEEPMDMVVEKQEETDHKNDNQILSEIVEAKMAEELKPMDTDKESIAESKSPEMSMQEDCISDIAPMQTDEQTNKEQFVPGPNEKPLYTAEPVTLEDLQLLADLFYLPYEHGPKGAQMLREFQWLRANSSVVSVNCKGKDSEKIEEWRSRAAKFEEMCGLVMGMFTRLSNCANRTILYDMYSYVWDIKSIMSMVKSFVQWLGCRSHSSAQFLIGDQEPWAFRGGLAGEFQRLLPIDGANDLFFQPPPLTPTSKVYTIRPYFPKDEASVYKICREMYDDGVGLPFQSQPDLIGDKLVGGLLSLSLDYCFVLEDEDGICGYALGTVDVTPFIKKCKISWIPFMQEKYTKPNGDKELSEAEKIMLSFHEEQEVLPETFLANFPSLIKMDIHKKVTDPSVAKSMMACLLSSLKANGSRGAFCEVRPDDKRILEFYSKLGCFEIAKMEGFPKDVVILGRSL
Description: OGA kinetics, Michaelis-Menten hydrolysis of pMP glycosides. The format is biochemical. Here is the method:
OGA kinetics: Synthesis and characterization of para-methoxyphenyl-5SGlcNAc is described in Example II. Kinetics were performed at 37° C. in PBS, pH 7.4 in a total volume of […]. Substrate concentrations of 25 μM to 1.5 mM were used for pMP-GlcNAc and 25 to 800 μM for pMP-5SGlcNAc. OGA (which was over-expressed and purified as described in Ref. ^42) was used at a concentration of 1 μM for pMP-GlcNAc and 3.6 μM for pMP-5SGlcNAc. Rates were monitored at a wavelength of 296 nm over the course of 10-20 min. Data were fit to the Michaelis-Menten equation in GRAFIT^41 and the kcat and KM values determined.

pEC50: −log10 of the molar value.

As to `CC(=O)OCC1SC(OC(C)=O)C(NC(=O)C(C)C)C(OC(C)=O)C1OC(C)=O` [Compound 21, N-(i-butyryl)-1,3,4,6-tetra-O-acetyl-a-D-5-thio-glucosamine], the “effect on O-GlcNAc levels at single dose” value in test [1] (24 h) was “decreased O-GlcNAc levels in cells”.
Take `O=C(Cc1cccc2ccccc12)NC1C(O)SC(CO)C(O)C1O` [Compound 36, N-(1-Naphthylacetyl)-α-D-5-thio-glucosamine]: in test [1] (24 h), the “effect on O-GlcNAc levels at single dose” value is given as “decreased O-GlcNAc levels in cells”.
On to `CCCC(=O)NC1C(OC(C)=O)SC(COC(C)=O)C(OC(C)=O)C1OC(C)=O` [Compound 19, N-(n-butyryl)-1,3,4,6-tetra-O-acetyl-a-D-5-thio-glucosamine], for which, in test [1] (24 h), the “effect on O-GlcNAc levels at single dose” value is reported as “decreased O-GlcNAc levels in cells”.
Take `CC[C@H](C)CC(=O)NC1C(OC(C)=O)SC(COC(C)=O)C(OC(C)=O)C1OC(C)=O` (stereo partly drawn) [Compound 37, N-[(S)-methylvaleryl]-1,3,4,6-tetra-O-acetyl-α-D-5-thio-glucosamine]: in test [1] (24 h), the “effect on O-GlcNAc levels at single dose” value is “decreased O-GlcNAc levels in cells” and the “extent of decrease of O-GlcNAc levels relative to parent compound 9” value is “comparable extent to the parent compound”.
Consider `CC(=O)OCC1SC(OC(C)=O)C(NC(=O)CC(C)C)C(OC(C)=O)C1OC(C)=O` (stereo not drawn) [Compound 25], for which the “effect on O-GlcNAc levels at single dose” value in test [1] (24 h) is “decreased O-GlcNAc levels in cells”.
Turning to `CCCCCC(=O)NC1C(OC(C)=O)SC(COC(C)=O)C(OC(C)=O)C1OC(C)=O` [Compound 27, N-hexonoyl-1,3,4,6-tetra-O-acetyl-a-D-5-thio-glucosamine], in test [1] (24 h), the “effect on O-GlcNAc levels at single dose” value is listed as “decreased O-GlcNAc levels in cells” and the “extent of decrease of O-GlcNAc levels relative to parent compound 9” value is “comparable extent to the parent compound”.
As usually defined, the pEC50 is the EC50 on a negative log10 scale, so that one unit is a factor of ten. On to `CC(=O)NC1C(O)SC(CO)C(O)C1O` [Compound 10, N-acetyl-α-D-5-thio-glucosamine], for which the “effect on O-GlcNAc levels, dose response” value in test [1] (24 hours) was “decreased O-GlcNAc levels in a dose-dependent fashion”. Besides, in test [1] (Chlorocebus sabaeus, 24 h, densitometry of western blot, read-out: EC50 for reduction of O-GlcNAc levels), the pEC50 is 3.15.
Consider `CC(=O)OCC1SC(OC(C)=O)C(NC(=O)Cc2cccc3ccccc23)C(OC(C)=O)C1OC(C)=O` [Compound 35, N-(1-naphthylacetyl)-1,3,4,6-tetra-O-acetyl-α-D-5-thio-glucosamine], for which the “effect on O-GlcNAc levels at single dose” value in test [1] (24 h) is given as “decreased O-GlcNAc levels in cells”.
For `O=C(CC1CCCCC1)NC1C(O)SC(CO)C(O)C1O` [Compound 34, N-(2-cyclohexylacetyl)-a-D-5-thio-glucosamine], in test [1] (24 h), the “effect on O-GlcNAc levels at single dose” value is given as “decreased O-GlcNAc levels in cells”.
With `CCC[C@H](C)C(=O)N[C@@H]1[C@@H](O)[C@H](O)[C@@H](CO)S[C@@H]1O` [Compound 38, N-[(S)-2-methylvaleryl]-a-D-5-thio-glucosamine], in test [1] (24 h), the “effect on O-GlcNAc levels at single dose” value is on record as “decreased O-GlcNAc levels in cells” and the “extent of decrease of O-GlcNAc levels relative to parent compound 9” value was “comparable extent to the parent compound”.
For `CC(=O)OC[C@H]1S[C@H](OC(C)=O)[C@H](N)[C@@H](OC(C)=O)[C@@H]1OC(C)=O.O=S(=O)(O)O` [Compound 31′, 1,3,4,6-tetra-O-acetyl-a-D-5-thio-glucosamine sulphuric acid salt], the “effect on O-GlcNAc levels at single dose” value in test [1] (24 h) is reported as “decreased O-GlcNAc levels in cells”.
Take `COc1ccc(O[C@H]2S[C@H](CO)[C@@H](O)[C@H](O)[C@H]2NC(C)=O)cc1` [Compound 14, para-Methoxyphenyl 2-acetamido-2-deoxy-5-thio-α-D-glucopyranoside]: the “kcat for OGA hydrolysis” value on OGA (37° C.) amounted to 0.28 nmol s^−1 me. At OGA (human OGA), the “Vmax/E0KM for OGA hydrolysis” value was 8.1 μmol s^−1 mg^−1 M^−1 and the “fold less efficiently processed by OGA than pMP-GlcNAc” value is 5 fold.
As to `CCC(=O)NC1C(OC(C)=O)SC(COC(C)=O)C(OC(C)=O)C1OC(C)=O` [Compound 17, N-proprionyl-1,3,4,6-tetra-O-acetyl-α-D-5-thio-glucosamine], the “effect on O-GlcNAc levels at single dose” value in test [1] (24 h) is “decreased O-GlcNAc levels in cells”.
What is called Km is the concentration of substrate that gives half-maximal velocity. Consider `COc1ccc(O[C@@H]2O[C@H](CO)[C@@H](O)[C@H](O)[C@H]2NC(C)=O)cc1` [pMP-GlcNAc, para-methoxyphenyl-GlcNAc, reference compound], for which, on OGA (37° C.), the Michaelis-Menten constant (Km) was found to be 350 µM and the “kcat for OGA hydrolysis” value amounted to 14.3 nmol/s/mg. The “Vmax/E0KM for OGA hydrolysis” value on OGA (human OGA) is reported as 40.7 μmol s^−1 mg^−1 M^−1.
With `CC(=O)OCC1SC(OC(C)=O)C(NC(=O)CC2CCCCC2)C(OC(C)=O)C1OC(C)=O` [Compound 33, N-(2-Cyclohexylacetyl)-1,3,4,6-tetra-O-acetyl-a-D-5-thio-glucosamine], the “effect on O-GlcNAc levels at single dose” value in test [1] (24 h) is “decreased O-GlcNAc levels in cells”.
For the compound `CCCCC(=O)NC1C(OC(C)=O)SC(COC(C)=O)C(OC(C)=O)C1OC(C)=O` [Compound 23, N-(n-valeryl)-1,3,4,6-tetra-O-acetyl-α-D-5-thio-glucosamine], in test [1] (24 h), the “effect on O-GlcNAc levels at single dose” value was “decreased O-GlcNAc levels in cells”.
